From patent publication US20230096028A1, “BICYCLIC HETEROCYCLYL COMPOUNDS AND USES THEREOF” (Revolution Medicines, Inc., priority 2019, published 2023)
Like-named read-outs stand apart in the source and are kept apart here.

Columns and labels:
[1] = test system: PC-9 cells (EGFR Ex19Del); assay: Potency Assay: pERK (SOS1 pERK IC50 Assay, AlphaLISA SureFire Ultra p-ERK1/2); assay type: cell-based; details: Homo sapiens, read-out: SOS1 pERK IC50
In short: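 Cellular pERK1/2 by AlphaLISA SureFire Ultra after 1 h compound exposure (37° C., highest concentration 10 μM, 3-fold steps, duplicates) of EGFR Ex19Del PC-9 cells seeded the day before. A 4-parameter fit of signal versus log concentration gives IC50.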

[2] = biological target: T1, SOS1 catalytic domain (residues 564-1049) (Homo sapiens, UniProt Q07889); assay: Potency Assay: binding affinity to SOS1 using Surface Plasmon Resonance (SPR); set-up: SOS1 catalytic domain (residues 564-1049) immobilized on a sensor chip; details: immobilized SOS1 catalytic domain (residues 564-1049), read-out: SOS1 SPR Equilibrium Kd
T1 sequence (Q07889 564-1049): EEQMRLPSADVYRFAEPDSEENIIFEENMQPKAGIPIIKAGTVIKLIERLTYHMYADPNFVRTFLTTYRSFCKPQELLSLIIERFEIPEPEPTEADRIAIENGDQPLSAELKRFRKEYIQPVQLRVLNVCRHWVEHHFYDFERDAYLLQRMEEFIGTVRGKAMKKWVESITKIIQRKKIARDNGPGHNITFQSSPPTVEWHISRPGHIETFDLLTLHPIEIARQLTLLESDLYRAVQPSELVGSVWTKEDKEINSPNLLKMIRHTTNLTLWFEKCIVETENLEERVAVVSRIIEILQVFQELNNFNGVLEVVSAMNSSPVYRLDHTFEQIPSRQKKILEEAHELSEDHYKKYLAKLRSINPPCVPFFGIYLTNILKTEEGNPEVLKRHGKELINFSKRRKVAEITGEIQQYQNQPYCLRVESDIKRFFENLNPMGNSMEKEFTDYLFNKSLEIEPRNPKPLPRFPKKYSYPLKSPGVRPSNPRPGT
In short: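 Kd was obtained by plotting binding response, taken just before association ended, versus compound concentration on a Biacore 8K. Compounds flowed at 50 μL/min over streptavidin-captured avi-SOS1 catalytic domain (~6000 RU), followed by buffer dissociation; HEPES 0.01 M/NaCl 0.15 M/0.05% P20 buffer, double-referenced.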

[3] = biological target: T1, SOS1 catalytic domain (residues 564-1049); assay: Mode of Action Assay: inhibition of SOS1 nucleotide exchange activity (SOS1 TR-FRET IC50 Assay)
[4] = PC-9 cells (EGFR Ex19Del), 1 hour incubation, AlphaLISA p-ERK1/2

Compound | IC50 [1, 4] [nM] | Kd [2] [nM] | IC50 [3] [nM] | IC50 ([1]; PC-9, 1 h) [nM]
C[C@@H](Nc1nc(Cl)nc2c1CN(C(=O)N1CCOCC1)C2)c1cccc2c1OCC2(F)F [Example 466, [2-chloro-4-[[(1R)-1-(3,3-difluoro-2H-benzofuran-7-yl)ethyl]amino]-5,7-dihydropyrrolo[3,4-d]pyrimidin-6-yl]-morpholino-methanone] | < 1000 | < 400 | < 1000 | –
C[C@@H](Nc1nc(Cl)nc2c1CN(C(=O)N1CCOCC1)C2)c1cccc(C(F)(F)COC2CC2)c1F [Example 469, [2-chloro-4-[[(1R)-1-[3-[2-(cyclopropoxy)-1,1-difluoro-ethyl]-2-fluoro-phenyl]ethyl]amino]-5,7-dihydropyrrolo[3,4-d]pyrimidin-6-yl]-morpholino-methanone] | – | < 400 | < 1000 | < 1000
CCC(Nc1nc(Cl)nc2c1CN(C(=O)N1CCOCC1)C2)c1cc(N)cc(C(F)(F)F)c1 (stereo not drawn) [Example 470, N-{1-[3-amino-5-(trifluoromethyl)phenyl]propyl}-2-chloro-6-(morpholine-4-carbonyl)-5H,6H,7H-pyrrolo[3,4-d]pyrimidin-4-amine] | – | > 400 | < 1000 | < 1000
Cc1c([C@@H](C)Nc2nc(Cl)nc3c2CN(C(=O)N2CCOCC2)C3)cccc1C(F)(F)F [Example 477, 2-chloro-N-[(1R)-1-[2-methyl-3-(trifluoromethyl)phenyl]ethyl]-6-(morpholine-4-carbonyl)-5H,6H,7H-pyrrolo[3,4-d]pyrimidin-4-amine] | < 1000 | < 400 | < 1000 | –
C[C@@H](Nc1nc(Cl)nc2c1CN(C(=O)N1CCOCC1)C2)c1cccc(C(C)(F)F)c1F [Example 478, 2-chloro-N-[(1R)-1-[3-(1,1-difluoroethyl)-2-fluorophenyl]ethyl]-6-(morpholine-4-carbonyl)-5H,6H,7H-pyrrolo[3,4-d]pyrimidin-4-amine] | < 1000 | < 400 | < 1000 | –
C[C@@H](Nc1nc(Cl)nc2c1CN(C(=O)N1CCOCC1)C2)c1cccc(C(C)(C)C#N)c1 [Example 482, 2-{3-[(1R)-1-{[2-chloro-6-(morpholine-4-carbonyl)-5H,6H,7H-pyrrolo[3,4-d]pyrimidin-4-yl]amino}ethyl]phenyl}-2-methylpropanenitrile] | – | > 400 | < 1000 | > 1000
C[C@@H](Nc1nc(Cl)nc2c1CN(C(=O)N1CCOCC1)C2)c1cccc(C(F)(F)C2CNCCO2)c1 (stereo partly drawn) [Example 484, 2-chloro-N-[(1R)-1-{3-[difluoro(morpholin-2-yl)methyl]phenyl}ethyl]-6-(morpholine-4-carbonyl)-5H,6H,7H-pyrrolo[3,4-d]pyrimidin-4-amine] | – | < 400 | < 1000 | < 1000
C[C@@H](Nc1nc(Cl)nc2c1CN(C(=O)N1CCOCC1)C2)c1cccc(C(F)(F)C2CN(C)CCO2)c1 (stereo partly drawn) [Example 485, 2-chloro-N-[(1R)-1-{3-[difluoro(4-methylmorpholin-2-yl)methyl]phenyl}ethyl]-6-(morpholine-4-carbonyl)-5H,6H,7H-pyrrolo[3,4-d]pyrimidin-4-amine] | < 1000 | < 400 | < 1000 | –
C[C@@H](Nc1nc(Cl)nc2c1CN(C(=O)N1CCOCC1)C2)c1cccc(C(F)F)c1 [Example 486, 2-chloro-N-[(1R)-1-[3-(difluoromethyl)phenyl]ethyl]-6-(morpholine-4-carbonyl)-5H,6H,7H-pyrrolo[3,4-d]pyrimidin-4-amine] | > 1000 | < 400 | < 1000 | –
COC1(C(=O)N2Cc3nc(Cl)nc(N[C@H](C)c4cccc5c4OCC5(F)F)c3C2)CCOCC1 [Example 490] | < 1000 | < 400 | < 1000 | –
C[C@@H](Nc1nc(Cl)nc2c1CN(C(=O)N1CCOCC1)C2)c1cccc(C(F)(F)C2CCCO2)c1 (stereo partly drawn) [Example 491] | < 1000 | < 400 | < 1000 | –
Cc1c(C(F)F)cccc1[C@@H](C)Nc1nc(Cl)nc2c1CN(C(=O)N1CCOCC1)C2 [Example 492] | < 1000 | < 400 | < 1000 | –
C[C@@H](Nc1nc(Cl)nc2c1CN(C(=O)N1CCOCC1)C2)c1cccc(C(F)(F)F)c1F [Example 496] | < 1000 | > 400 | < 1000 | –
C[C@@H](Nc1nc(CN2CCOCC2)nc2c1CN(C(=O)N1CCOCC1)C2)c1cc(N)cc(C(F)(F)F)c1 [Example 504, N-[(1R)-1-[3-amino-5-(trifluoromethyl)phenyl]ethyl]-2-[(morpholin-4-yl)-methyl]-6-(morpholine-4-carbonyl)-5H,6H,7H-pyrrolo[3,4-d]pyrimidin-4-amine] | > 1000 | > 400 | < 1000 | –
CNc1nc2c(c(N[C@H](C)c3cccc(C(F)F)c3F)n1)CN(C(=O)N1CCOCC1)C2 [Example 505, N4-[(1R)-1-[3-(difluoromethyl)-2-fluorophenyl]ethyl]-N2-methyl-6-(morpholine-4-carbonyl)-5H,6H,7H-pyrrolo[3,4-d]pyrimidine-2,4-diamine] | > 1000 | > 400 | > 1000 | –
Cc1c(C(C)Nc2nc(Cl)nc3c2CN(C(=O)N2CCOCC2)C3)cccc1C(F)(F)CO (stereo not drawn) [Example 507, 2-[3-(1-{[2-chloro-6-(morpholine-4-carbonyl)-5H,6H,7H-pyrrolo[3,4-d]pyrimidin-4-yl]amino}ethyl)-2-methylphenyl]-2,2-difluoroethan-1-ol] | > 1000 | < 400 | < 1000 | –

Further lines, with some results ahead:

IC50 [1, 4] [nM] | Kd [2] [nM] | IC50 [3] [nM] | Compound | IC50 ([1]; PC-9, 1 h) [nM]
> 1000 | < 400 | < 1000 | O=C(N1CCOCC1)N1Cc2nc(Cl)nc(NC(CF)c3cccc(C(F)(F)CO)c3)c2C1 (stereo not drawn) [Example 463, (2-chloro-4-((1-(3-(1,1-difluoro-2-hydroxyethyl)phenyl)-2-fluoroethyl)amino)-5,7-dihydro-6H-pyrrolo[3,4-d]pyrimidin-6-yl)(morpholino)methanone] | –
> 1000 | < 400 | < 1000 | C[C@@H](Nc1nc(Cl)nc2c1CN(C(=O)N1CCOCC1)C2)c1cccc(C(C)(F)F)c1 [Example 467, [2-chloro-4-[[(1R)-1-[3-(1,1-difluoroethyl)phenyl]ethyl]amino]-5,7-dihydropyrrolo[3,4-d]pyrimidin-6-yl]-morpholino-methanone] | –
< 1000 | < 400 | < 1000 | C[C@@H](Nc1nc(Cl)nc2c1CN(C(=O)N1CCOCC1)C2)c1cccc2c(F)coc12 [Example 468, [2-chloro-4-[[(1R)-1-(3-fluorobenzofuran-7-yl)ethyl]amino]-5,7-dihydropyrrolo[3,4-d]pyrimidin-6-yl]-morpholino-methanone] | –
< 1000 | < 400 | < 1000 | COC1(C(=O)N2Cc3nc(Cl)nc(NC(C)c4cccc(C(F)(F)CO)c4F)c3C2)CCOCC1 (stereo not drawn) [Example 471, 2-[3-(1-{[2-chloro-6-(4-methoxyoxane-4-carbonyl)-5H,6H,7H-pyrrolo[3,4-d]pyrimidin-4-yl]amino}ethyl)-2-fluorophenyl]-2,2-difluoroethan-1-ol] | –
> 1000 | < 400 | < 1000 | CC(Nc1nc(Cl)nc2c1CN(C(=O)N1CCOCC1)C2)c1cccc2c1OCCC2(F)F (stereo not drawn) [Example 476, 2-chloro-N-[1-(4,4-difluoro-3,4-dihydro-2H-1-benzopyran-8-yl)ethyl]-6-(morpholine-4-carbonyl)-5H,6H,7H-pyrrolo[3,4-d]pyrimidin-4-amine] | –
< 1000 | < 400 | < 1000 | C[C@@H](Nc1nc(Cl)nc2c1CN(C(=O)N1CCOCC1)C2)c1cccc(C(F)(F)COC2COC2)c1 [Example 479, 2-chloro-N-[(1R)-1-{3-[1,1-difluoro-2-(oxetan-3-yloxy)ethyl]phenyl}ethyl]-6-(morpholine-4-carbonyl)-5H,6H,7H-pyrrolo[3,4-d]pyrimidin-4-amine] | –
> 1000 | < 400 | < 1000 | C[C@@H](Nc1nc(Cl)nc2c1CN(C(=O)N1CCOCC1)C2)c1cccc(C(F)(F)CN(C)C)c1 [Example 483, 2-chloro-N-[(1R)-1-{3-[2-(dimethylamino)-1,1-difluoroethyl]phenyl}ethyl]-6-(morpholine-4-carbonyl)-5H,6H,7H-pyrrolo[3,4-d]pyrimidin-4-amine] | –
< 1000 | < 400 | < 1000 | COC1(C(=O)N2Cc3nc(Cl)nc(N[C@H](C)c4cccc(C(F)F)c4F)c3C2)COC1 [Example 489] | –
< 1000 | < 400 | < 1000 | C[C@@H](Nc1nc(Cl)nc2c1CN(C(=O)N1CCOCC1)C2)c1cccc(C(F)(F)C(C)(C)O)c1F [Example 493] | –
